Assay results published in PubChem BioAssay (NCI).
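A five-concentration, 48-hour dose response in 96-well plates underlies each endpoint, interpolated linearly between surrounding concentrations. The concentration for 50% growth inhibition is given as GI50. At the TGI there is no net growth.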

How the values were obtained:
Assay in all cases: NCI tumour cell line growth inhibition, 48 h
[1] = test system: IGROV1 ovarian
[2] = test system: HOP-62 NSCLC
[3] = test system: OVCAR-5 ovarian
[4] = test system: HCT-15 colon
[5] = test system: MDA-MB-231 breast
[6] = test system: KM12 colon
[7] = test system: RXF 393 renal
[8] = test system: T-47D breast
[9] = test system: SK-MEL-5 melanoma
[10] = test system: SN12C renal

O=C(O)C(CCc1ccccn1)c1ccccc1 (configuration not stated)
TGI [1]: > 100 µM
TGI [2]: > 100 µM
TGI [3]: > 100 µM
TGI [4]: > 100 µM
TGI [5]: > 100 µM
TGI [6]: > 100 µM
TGI [7]: > 100 µM
TGI [8]: > 100 µM
TGI [9]: > 100 µM
TGI [10]: > 100 µM

CN(CCc1ccc(Cl)c(Cl)c1)[C@H]1CCCC[C@H]1N1CCCC1
TGI [1]: > 100 µM
TGI [2]: > 100 µM
TGI [3]: > 100 µM
TGI [4]: > 100 µM
TGI [5]: > 100 µM
TGI [6]: > 100 µM
TGI [7]: > 100 µM
TGI [8]: > 100 µM
TGI [9]: > 100 µM
TGI [10]: > 100 µM

CN(C)CCOC(=O)COc1ccc(Cl)cc1
TGI [1]: > 100 µM
TGI [2]: > 100 µM
TGI [3]: > 100 µM
TGI [4]: > 100 µM
TGI [5]: > 100 µM
TGI [6]: > 100 µM
TGI [7]: > 100 µM
TGI [8]: > 100 µM
TGI [9]: > 100 µM
TGI [10]: > 100 µM

Nc1nc(Cl)cc(N=Nc2ccccc2)n1
TGI [1]: 51.3 µM
TGI [2]: 60.1 µM
TGI [3]: > 100 µM
TGI [4]: 35 µM
TGI [5]: > 100 µM
TGI [6]: > 100 µM
TGI [7]: 97.2 µM
TGI [8]: > 100 µM
TGI [9]: 40 µM
TGI [10]: > 100 µM

CC1=C(C(=O)OCCc2ccc([N+](=O)[O-])cc2)C(c2ccccc2[N+](=O)[O-])C(C(=O)OC(C)C)=C(C)N1 (configuration not stated)
TGI [1]: > 100 µM
TGI [2]: > 100 µM
TGI [3]: > 100 µM
TGI [4]: > 100 µM
TGI [5]: > 100 µM
TGI [6]: > 100 µM
TGI [7]: 35.9 µM
TGI [8]: > 100 µM
TGI [9]: 5.14 µM
TGI [10]: > 100 µM

COC(=O)C(/C(=N/NC(=O)c1ccncc1)C(=O)Nc1ccccc1OC)c1nc2ccc(Cl)cc2[nH]c1=O (configuration not stated)
TGI [1]: > 100 µM
TGI [2]: > 100 µM
TGI [3]: > 100 µM
TGI [4]: > 100 µM
TGI [5]: > 100 µM
TGI [6]: > 100 µM
TGI [7]: > 100 µM
TGI [8]: > 100 µM
TGI [9]: > 100 µM
TGI [10]: > 100 µM

c1ccc(CCN2CCCCCC2)nc1
TGI [1]: > 100 µM
TGI [2]: > 100 µM
TGI [3]: > 100 µM
TGI [4]: > 100 µM
TGI [5]: > 100 µM
TGI [6]: > 100 µM
TGI [7]: > 100 µM
TGI [8]: > 100 µM
TGI [9]: > 100 µM
TGI [10]: > 100 µM

C=CCC(CNC(=O)OCc1ccccc1)O[Si](C)(C)C(C)(C)C (configuration not stated)
TGI [1]: 84.3 µM
TGI [2]: > 100 µM
TGI [3]: 71.6 µM
TGI [4]: > 100 µM
TGI [5]: 37 µM
TGI [6]: > 100 µM
TGI [7]: 47.6 µM
TGI [8]: > 100 µM
TGI [9]: 31.8 µM
TGI [10]: > 100 µM

Clc1nc(-[n+]2ccc(-c3ccncc3)cc2)nc(Nc2ccccc2)c1Cl
TGI [1]: > 100 µM
TGI [2]: > 100 µM
TGI [3]: > 100 µM
TGI [4]: > 100 µM
TGI [5]: > 100 µM
TGI [6]: > 100 µM
TGI [7]: > 100 µM
TGI [8]: > 100 µM
TGI [9]: > 100 µM
TGI [10]: > 100 µM

CCC1(CC)C(=O)CC[C@@]2(C)C1=CC[C@H]1[C@@H]3CC[C@H](O)[C@@]3(C)CC[C@@H]12
TGI [1]: > 100 µM
TGI [2]: 37 µM
TGI [3]: > 100 µM
TGI [4]: > 100 µM
TGI [5]: > 100 µM
TGI [6]: > 100 µM
TGI [7]: > 100 µM
TGI [8]: 99.7 µM
TGI [9]: > 100 µM
TGI [10]: 31.6 µM

C/C(=N\NC(N)=O)C(CN1CCCCC1)C(c1ccccc1)c1c(O)c2ccccc2oc1=O (configuration not stated)
TGI [1]: > 100 µM
TGI [2]: > 100 µM
TGI [3]: > 100 µM
TGI [4]: > 100 µM
GI50 [5]: > 100 µM
TGI [5]: > 100 µM
TGI [6]: > 100 µM
TGI [7]: > 100 µM
GI50 [8]: > 100 µM
TGI [8]: > 100 µM
TGI [9]: > 100 µM
TGI [10]: > 100 µM

C/C(=C/CO[Si](C)(C)C(C)(C)C)C(=O)N(C)c1ccccc1I
TGI [1]: 29.9 µM
TGI [2]: 36.5 µM
TGI [3]: 27.8 µM
TGI [4]: 34.5 µM
TGI [5]: 28.3 µM
TGI [6]: 33.6 µM
TGI [7]: 31.9 µM
TGI [8]: 35.9 µM
TGI [9]: 29 µM
TGI [10]: 31.1 µM

COC(=O)C1=C(O)C(C(=O)OC)[C@@]2(O)[C@@H](C(=O)OC)C(c3ccc(OC(=O)/C(=C/c4ccc(Cl)cc4)c4ccc(Cl)cc4)cc3)C[C@@H]1[C@@H]2C(=O)OC (some centres not stated)
TGI [1]: > 100 µM
TGI [2]: > 100 µM
TGI [3]: > 100 µM
TGI [4]: > 100 µM
TGI [5]: 82.8 µM
TGI [6]: > 100 µM
TGI [7]: > 100 µM
TGI [8]: > 100 µM
TGI [9]: > 100 µM
TGI [10]: > 100 µM

Cn1c(=O)c2c(-c3ccccc3)onc2n(C)c1=O
TGI [1]: 55.3 µM
TGI [2]: > 100 µM
TGI [3]: > 100 µM
TGI [4]: > 100 µM
TGI [5]: > 100 µM
TGI [6]: > 100 µM
TGI [7]: > 100 µM
TGI [8]: > 100 µM
TGI [9]: > 100 µM
TGI [10]: > 100 µM

N#CC1=C(N)C(C#N)(C#N)C(c2ccc(F)cc2)C=C1C1CC1 (configuration not stated)
TGI [1]: 25.5 µM
TGI [2]: 25.8 µM
TGI [3]: 34.5 µM
TGI [4]: 22.3 µM
TGI [5]: 33.1 µM
TGI [6]: 16 µM
TGI [7]: 18.6 µM
TGI [8]: 29 µM
TGI [9]: 16.2 µM
TGI [10]: 10.3 µM

CCOC(=O)c1ccc2nc(NC(=O)COC(=O)CSc3nc(C)cc(C)n3)sc2c1
TGI [1]: > 100 µM
TGI [2]: 50.5 µM
TGI [3]: 86.1 µM
TGI [4]: > 100 µM
TGI [5]: > 100 µM
TGI [6]: > 100 µM
TGI [7]: > 100 µM
TGI [8]: 63.6 µM
TGI [9]: > 100 µM
TGI [10]: > 100 µM

CCCn1c(C23CC4CC(CC(C4)C2)C3)nc2ccc(Cl)cc2c1=O
TGI [1]: > 100 µM
TGI [2]: 70.1 µM
TGI [3]: > 100 µM
TGI [4]: > 100 µM
TGI [5]: > 100 µM
TGI [6]: > 100 µM
TGI [7]: 29 µM
TGI [8]: > 100 µM
TGI [9]: > 100 µM
TGI [10]: > 100 µM
